Source: patent US10174401B2, “Methods for binding and precipitating gold using microbial-derived metallophores and their uses” (McMaster University, priority 2013, dated 2019)
*1 amine or outer side, *2 acyl side, *3 side chain or, on linkers, in order; H or OH if unused. Where a SMILES comes first, the peptide text is derived from it. [ ]: non-standard residue; d: D form. The star is where a group is joined. ξ: configuration not given here. NH(1-OH-2-oxopiperidin-3-yl) = O=C1C(N*)CCCN1O; ξOrn(N(OH)Ac) = CC(=O)N(O)CCCC(N)C(=O)O; ξOrn(N(OH)CHO) = NC(CCCN(O)C=O)C(=O)O; ξAsp(βξ-Me) = CC(C(=O)O)C(N)C(=O)O; X2 = C/C=C(/N[*:1])C(=O)[*:2]; X1 = CC(N)C(O)C(C)C(=O)*

Assays:
[1] = Gold-siderophore reactions (gold nanoparticle formation, gold-iron competition, LC-MS of supernatant); details: for gold nanoparticle formation (visual inspection): 10 mM AuCl3 reacted with equimolar chelator; for concentration of metallophore after AuCl3 exposure: LC-MS, 2 hr exposure, vs unreacted control; for reaction with gold after pre-exposure to / in presence of iron: equimolar FeCl3
Description: Ten microliters of the AuCl3 stock solution was aliquoted into separate 200 μL microcentrifuge tubes, followed by the addition of 10 μL of each respective siderophore or metal chelator, where water was used as a control. The reaction was monitored over time and images were taken. After 2 h, a sample of the mixture was diluted 10× and analyzed by transmission electron microscopy (TEM) (see below). The remaining sample was centrifuged at 13,000 rpm for ten minutes. A 10 μL sample of the supernatant was diluted in 90 μL of water and subsequently analyzed by LC-MS. A control of unreacted siderophore and metal chelator of the same concentration was also analyzed for comparison. […] Reactions were monitored similarly. UV-vis spectrums were obtained using a Synergy 4 microplate reader (Biotek).

[2] = Time course of AuCl3 precipitation by delftibactins in absence and presence of FeCl3
Description: (§1) Twenty microliter reactions were set up as follows: i) water only, ii) 5 mM delftibactin A, iii) 5 mM AuCl3 iv) 5 mM FeCl3 v) 5 mM AuCl3+5 mM FeCl3 vi) 5 mM delftibactin B+5 mM AuCl3 vii) delftibactin B+5 mM AuCl3+5 mM FeCl3 viii) delftibactin B+5 mM FeCl3. Reactions were initiated by the addition of delftibactin and images were taken at time points indicated. After 2 h, reactions were serially diluted to 30 μM final concentration in ACM containing D. acidovorans ΔdelG diluted 1:1000 from an overnight culture. Optical density was monitored using a TECAN Sunrise™ microplate reader at 600 nm for 36 h. Results are a mean of three growth curves for each condition from a single representative experiment. As a second test of delftibactin protective capacity, D. acidovorans ΔdelG cells from an overnight culture were inoculated 1:1000 into 100 μL ACM in a 96-well plate containing 0 or 10 μM AuCl3, and then provided 0 or 100 μM delftibactin. Cultures were grown for 84 h at 250 rpm at 30° C. in a TECAN Sunrise™ microplate reader, measuring at 600 nm to assess growth. Results are a mean of three growth curves for each condition from a single representative experiment.

[3] = Test strip: metallophore on C18-silica TLC plate developed with gold chloride; details: immobilized on C18-silica TLC slide, developed with gold chloride solution
Description: Pictures were taken after 10 min.
A solution containing gold chloride was used to develop the strip. Pictures were taken at the times indicated.

D. acidovorans ΔdelG [4] = assay: Gold protective comparison of delftibactin A and B (growth curves); format: cell-based, Delftia acidovorans; details: 125 μM AuCl3 + 125 μM delftibactin
Description: Twenty microliter reactions were set up as follows: water only, 5 mM AuCl3, 5 mM AuCl3+delftibactin A, and 5 mM AuCl3+delftibactin B. Reactions were initiated with the addition of delftibactin A or B. After 2 h, reactions were serially diluted to 125 μM in ACM containing D. acidovorans ΔdelG diluted 1:1000 from an overnight culture. Optical density was monitored using a TECAN Sunrise™ microplate reader at 600 nm for 36 h. Results are a mean of three growth curves for each condition from a single representative experiment.

[5] = Citrate-gold and delftibactin A-gold comparison; details: room temperature, neutral pH
Description: Stock 10 mM solutions of sodium citrate and purified delftibactin A were mixed with and equimolar solution of AuCl3 and allowed to react at room temperature in 1.5 mL Eppendorf tubes. Photographs were taken from the initial addition of gold to 1 h exposure. Similarly, TEM experiments were performed by mixing 10 mM stock solutions of AuCl3 and either delftibactin A or sodium citrate 1:1 on a formvar-carbon coated 100-square mesh copper grid, imaging after 10 min AuCl3 exposure.

D. acidovorans ΔdelG [6] = assay: Delftibactin-mediated protection against gold toxicity (CFU after acute exposure); format: cell-based, Delftia acidovorans
Description: Cultures of D. acidovorans wild type and D. acidovorans ΔdelG were grown in deferrated ACM for 2 days at 30° C. In 96-well plates, 200 μL of wild type or mutant grown culture were incubated in the presence and absence of 100 μM AuCl3. At the same time, the mutant culture was also complemented with […] delftibactin (biological levels) in the presence of 100 μM AuCl3. After 30 minutes, cultures were serially diluted in water and plated on LB agar to determine the colony forming units of D. acidovorans after gold exposure. Results are shown as mean s.d.; n=4; Two-tailed student's t-test.

[7] = TEM imaging of siderophore-gold reactions
Description: Transmission electron microscopy imaging was performed with a JEOL JEM 1299 EX TEMSCAN transmission electron microscope (JEOL, Peabody, Mass., USA) operated at an accelerating voltage of 80 kV. Sample preparation: a 2 μL drop of a diluted (10×) siderophore-gold reaction was deposited over a formvar-coated TEM grid, and was allowed to dry under ambient conditions before being imaged. Gold nanoparticle size distribution was determined using the software, ImageJ.

[8] = Transmission electron microscopy of delftibactin A:Au(III) complexes; details: delftibactin A:AuCl3 2:1, 10 min
Description: Delftibactin A was reacted with AuCl3 with a molar ratio equal to 2:1 for ten minutes. Each separate reaction of delftibactin A with AuCl3 was examined using a Phillips CM-10 transmission electron microscopy operating at 80 kV. The whole-mount sample was absorbed and dried on a formvar-carbon coated 100-square mesh copper grid and rinsed with filter sterilized, de-ionized water to remove any salt precipitates.

D. acidovorans ΔdelG [9] = assay: Gold detoxification in chronic exposure by delftibactin A (growth curves); format: cell-based, Delftia acidovorans
Description: as §1

[10] = Description: The gold-delftibactin A interaction was determined through two separate experiments. First, AuCl3 was held constant at 2.5 mM and the interaction with delftibactin A was monitored by measuring the absorption of AuCl3 remaining in solution after precipitation by delftibactin A through comparison with a standard curve. Briefly, 2.5 mM AuCl3 was incubated with 5, 2.5, 1.25, 0.6125, 0.3063, and 0.1531 mM delftibactin A for 1 h. Solutions were filtered with a 0.22 μM Acrodisc (Pall, USA) to remove insoluble delftibactin A-gold precipitate. 100 μl of the filtered reaction was placed in a 96-well plate and the absorbance was read at 300 nm using a SpectraMax 384 Plus (Molecular Devices, USA). Absorption was compared to an AuCl3 standard curve to determine the concentration of AuCl3 remaining in solution. To monitor the amount of delftibactin A remaining in solution after reaction with gold a similar experiment was conducted. Delftibactin A (2.5 mM) was incubated with 5, 2.5, 1.25, 0.6125, 0.3063, and 0.1531 mM AuCl3 for 1 h. Solutions were filtered similar to above. Reaction mixtures were analyzed using a Waters Alliance 2695 RP-HPLC separations module, equipped with a Waters 2998 photodiode array and a Luna 5u C18 column (250×4.60 mm, Phenomenex). The mobile phase was linear from 2% acetonitrile, 98% water+5 mM (NH4)2CO3 at 2 min to 14% acetonitrile at 18 min at a flow rate of 1 mL/min. […]
[11] = Exposure of acidobactin A to gold; details: when exposed to gold
D. acidovorans = assay: Growth of D. acidovorans in presence of gold precipitate or AuCl3 (MIC); format: cell-based, Delftia acidovorans
Description: The assay was set up as follows: 50 μL of ddH2O containing 3.2, 1.6, 1.4, 1.2, 1.0, 0.8, 0.6, 0.4, and 0.2 mM delftibactin A was added in quadruplicate to wells within a 96-well plate. A 1.6 mM stock solution of AuCl3 was made and 50 μL was added to each well containing delftibactin A. No-delftibactin A and no-AuCl3 controls containing only water were also added to the 96-well plate in quadruplicate. This was incubated for 30 min at room temperature, during which time 10 mL of an overnight culture of D. acidovorans, grown in ACM was centrifuged and resuspended in 5 mL sterilized ddH2O. After 30 min incubation of AuCl3 with delftibactin, 100 μL of concentrated culture was added to each well. Final concentration of AuCl3 was 400 μM and the final concentrations of delftibactin A were 800, 400, 350, 300, 250, 200, 150, 100, and 50 μM. After 30 minutes of incubation at room temperature, mixtures were serial diluted and plated onto Nutrient Agar plates and incubated at 30° C. Colonies were counted after 24 h of growth. Results are shown as mean±s.d.; n=4. To assess whether D. acidovorans could grow in the presence of the gold precipitate, several milligrams of delftibactin A and AuCl3 were reacted 1:1 overnight and centrifuged, and washed once with water to concentrate the precipitate. The precipitate was resuspended in ddH2O at a final concentration of 100 mM, calculated using a molecular weight of 1227 g/mol, corresponding to a gold-delftibactin A species. D. acidovorans was grown overnight in a 96-well plate in 100 μL of ACM containing 20 μM to 10 mM gold precipitate or AuCl3. […] The MIC of AuCl3 was determined to be roughly 10 μM.

c1ccc(-c2ccccn2)nc1 [bipyridyl]
gold nanoparticle formation (visual inspection) [1]: fail to develop a similar effect even after prolonged exposure to gold ions

C/C=C(/NC(=O)CNC(=O)C(C)NC(=O)C(NC(=O)C(C)C(O)C(C)N)C(C)C(=O)O)C(=O)NC(CCCN(O)C=O)C(=O)NC(C)C(=O)NC(CCCNC(=N)N)C(=O)NC1CCCN(O)C1=O (stereo not drawn) [delftibactin A] (X1-[ξAsp(βξ-Me)]AG[X2][ξOrn(N(OH)CHO)]AR-{NH(1-OH-2-oxopiperidin-3-yl)}; configuration not given here)
gold precipitation in presence of iron ([2]; equimolar 5 mM AuCl3 + 5 mM FeCl3): gold precipitation would proceed in the presence of high concentrations of iron | darkening of test strip [3]: darkening can be seen | gold nanoparticle formation (visual inspection) [1]: rapidly undergo a characteristic blackening | concentration of metallophore after AuCl3 exposure [1]: decreased | reaction with gold after pre-exposure to / in presence of iron [1]: gold reducing power is reduced | detoxification / protection against AuCl3 toxicity (D. acidovorans ΔdelG [4]): more protective against AuCl3 toxicity than delftibactin B | timescale of creating gold structures from Au3+ [5]: seconds | rescue of ΔdelG strain from gold toxicity (D. acidovorans ΔdelG [6]; exogenous purified delftibactin 30 sM, 100 μM AuCl3, 30 min): rescued | octahedral gold particle formation ([7]; TEM): also produces octahedral gold particles | nature of gold precipitate by TEM [8]: abundance of colloidal gold nanoparticles and octahedral gold platelets | toxicity (D. acidovorans ΔdelG [9]): nontoxic | protection from chronic gold toxicity (D. acidovorans ΔdelG [9]; exogenous addition to ΔdelG cultures, 100 μM delftibactin A + 10 μM AuCl3, 84 h): sufficient to overcome chronic gold toxicity | solubility on complexing to gold [10]: abrupt and total loss of solubility | co-precipitation with gold ([10]; 2.5 mM AuCl3, end-point assays): co-precipitate with gold from solution

CC(C)(C1=N[C@@](C)(C(=O)O)CS1)[C@H](O)[C@@H]1CSC([C@H]2CSC(c3ccccc3O)=N2)N1 (stereo partly drawn) [yersiniabactin, reference compound]
gold nanoparticle formation (visual inspection) [1]: does not generate substantial quantities of gold nanoparticles | nanoparticles seen by TEM ([7]; after 2 h reaction with AuCl3): did not create any distinct nanoparticles

CC1CC(=O)NC(CCCN(O)C=O)C(O)CC(=O)NC(C(C)O)C(=O)NC(CCCNO)C(=O)NC(CO)C(=O)NC(C(O)C(=O)O)C(=O)O1 (stereo not drawn) [acidobactin A]
gold complexing [11]: shown the gold complexing phenomenon

[Cl][Au]([Cl])[Cl] [AuCl3]
increase in sensitivity to gold toxicity in the ΔdelG strain (D. acidovorans ΔdelG [6]; ΔdelG vs wild-type, 100 μM AuCl3, 30 min exposure, CFUs): 102.8 fold | concentration at which toxic (D. acidovorans; D. acidovorans): 10 µM | MIC of AuCl3 (D. acidovorans; D. acidovorans grown overnight in ACM, 96-well plate): roughly 10 μM | growth of D. acidovorans (D. acidovorans; overnight in ACM containing 20 μM to 10 mM gold precipitate or AuCl3): No growth

CC(=O)N(O)CCCC[C@H](NC(=O)CC(O)(CC(=O)N[C@@H](CCCCN(O)C(C)=O)C(=O)O)C(=O)O)C(=O)O [aerobactin]
gold nanoparticle formation (visual inspection) [1]: fail to produce defined gold nanoparticles

C/C=C(/NC(=O)CNC(=O)C(C)NC(=O)C(NC(=O)C(C)C(O)C(C)N)C(C)C(=O)O)C(=O)NC(CCCN(O)C(C)=O)C(=O)NC(C)C(=O)NC(CCCNC(=N)N)C(=O)NC1CCCN(O)C1=O (stereo not drawn) [delftibactin B] (X1-[ξAsp(βξ-Me)]AG[X2][ξOrn(N(OH)Ac)]AR-{NH(1-OH-2-oxopiperidin-3-yl)}; configuration not given here)
gold reduction efficiency ([2]; 5 mM AuCl3, compared with delftibactin A): less efficient in gold reduction | gold nanoparticle formation (visual inspection) [1]: rapidly undergo a characteristic blackening | detoxification / protection against AuCl3 toxicity (D. acidovorans ΔdelG [4]): decreased detoxification

O=C(O)CN(CCN(CC(=O)O)CC(=O)O)CC(=O)O [EDTA, ethylenediaminetetraacetic acid]
gold nanoparticle formation (visual inspection) [1]: fail to develop a similar effect even after prolonged exposure to gold ions

O=C(N[C@H]1COC(=O)[C@@H](NC(=O)c2cccc(O)c2O)COC(=O)[C@@H](NC(=O)c2cccc(O)c2O)COC1=O)c1cccc(O)c1O [enterobactin]
gold nanoparticle formation (visual inspection) [1]: considerable gold nanoparticle formation | concentration of metallophore after AuCl3 exposure [1]: remained unchanged | reaction with gold after pre-exposure to / in presence of iron [1]: reacts with gold to a similar extent as when iron is not present
